“And” between values parts separate entries of the source, which are not always exact repeats. Equal values may be shown once. Inconclusive results and toxic doses are left out.
Test system: CD2F1 mice, L1210 leukemia ip, survival T/C
Test: NCI In Vivo Anticancer Drug Screen. Data for tumor model L1210 Leukemia (intraperitoneal) in CD2F1 (CDF1) mice
Settings: higher = longer survival
How it was run: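 Mice carrying a transplanted tumor received test compound or vehicle alone. The value is the measurement in the treated group divided by that in the vehicle-treated control group.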

[1] = endpoint: mean survival time, dose: 6.25 mg/kg/injection, schedule: Q04DX003 (ip), vehicle: saline with Tween-80
[2] = endpoint: mean survival time, dose: 12.5 mg/kg/injection, schedule: Q04DX003 (ip), vehicle: saline with Tween-80
[3] = endpoint: mean survival time, dose: 25.0 mg/kg/injection, schedule: Q04DX003 (ip), vehicle: saline with Tween-80
[4] = endpoint: mean survival time, dose: 100.0 mg/kg/injection, schedule: Q04DX003 (ip), vehicle: saline
[5] = endpoint: mean survival time, dose: 50.0 mg/kg/injection, schedule: Q01DX009 (ip), vehicle: other
[6] = endpoint: mean survival time, dose: 100.0 mg/kg/injection, schedule: Q01DX009 (ip), vehicle: other
[7] = endpoint: mean survival time, dose: 200.0 mg/kg/injection, schedule: Q01DX009 (ip), vehicle: other
[8] = endpoint: mean survival time, dose: 100.0 mg/kg/injection, schedule: Q04DX003 (ip), vehicle: saline with Tween-80
[9] = endpoint: mean survival time, dose: 200.0 mg/kg/injection, schedule: Q04DX003 (ip), vehicle: saline with Tween-80
[10] = endpoint: mean survival time, dose: 400.0 mg/kg/injection, schedule: Q04DX003 (ip), vehicle: saline with Tween-80
[11] = endpoint: mean survival time, dose: 100.0 mg/kg/injection, schedule: Q01DX001 (ip), vehicle: saline
[12] = endpoint: mean survival time, dose: 200.0 mg/kg/injection, schedule: Q01DX001 (ip), vehicle: saline
[13] = endpoint: mean survival time, dose: 400.0 mg/kg/injection, schedule: Q01DX001 (ip), vehicle: saline
[14] = endpoint: mean survival time, dose: 200.0 mg/kg/injection, schedule: Q04DX003 (ip), vehicle: saline
[15] = endpoint: mean survival time, dose: 400.0 mg/kg/injection, schedule: Q04DX003 (ip), vehicle: saline
[16] = endpoint: mean survival time, dose: 100.0 mg/kg/injection, schedule: Q01DX009 (ip), vehicle: saline with Tween-80
[17] = endpoint: mean survival time, dose: 200.0 mg/kg/injection, schedule: Q01DX009 (ip), vehicle: saline with Tween-80
[18] = endpoint: mean survival time, dose: 400.0 mg/kg/injection, schedule: Q01DX009 (ip), vehicle: saline with Tween-80

`Cc1ccc(S(=O)(=O)Nc2c([N+](=O)[O-])cc([N+](=O)[O-])c3ccccc23)cc1` was tested, and the T/C (endpoint: mean survival time, dose: 6.25 mg/kg/injection, schedule: Q01DX009 (ip), vehicle: saline with Tween-80) was 104 % of control, the T/C [1] was 100 % of control and the T/C (endpoint: mean survival time, dose: 12.5 mg/kg/injection, schedule: Q01DX009 (ip), vehicle: saline with Tween-80) was 100 % of control. The T/C [2] was 96 % of control, the T/C (endpoint: mean survival time, dose: 25.0 mg/kg/injection, schedule: Q01DX009 (ip), vehicle: saline with Tween-80) was 103 % of control and the T/C [3] was 100 % of control.

With `C[n+]1ccccc1/C=N/O` the T/C (endpoint: mean survival time, dose: 25.0 mg/kg/injection, schedule: Q04DX003 (ip), vehicle: saline) was 96 % of control, the T/C (endpoint: mean survival time, dose: 50.0 mg/kg/injection, schedule: Q04DX003 (ip), vehicle: saline) was 94 % of control and the T/C [4] was 93 % of control and 97 % of control.

For `OC1CC2CCC(C1)N2CCCN1c2ccccc2Sc2ccc(Cl)cc21` (stereo not given), the T/C (endpoint: mean survival time, dose: 7.5 mg/kg/injection, schedule: Q01DX009 (ip), vehicle: saline) was 91 % of control, the T/C (endpoint: mean survival time, dose: 15.0 mg/kg/injection, schedule: Q01DX009 (ip), vehicle: saline) was 98 % of control and the T/C (endpoint: mean survival time, dose: 18.0 mg/kg/injection, schedule: Q04DX003 (ip), vehicle: saline with Tween-80) was 99 % of control. For the same molecule, the T/C (endpoint: mean survival time, dose: 27.0 mg/kg/injection, schedule: Q04DX003 (ip), vehicle: saline with Tween-80) was 94 % of control, the T/C (endpoint: mean survival time, dose: 30.0 mg/kg/injection, schedule: Q01DX009 (ip), vehicle: saline) was 109 % of control and the T/C (endpoint: mean survival time, dose: 40.0 mg/kg/injection, schedule: Q04DX003 (ip), vehicle: saline with Tween-80) was 103 % of control. For the same molecule, the T/C (endpoint: mean survival time, dose: 60.0 mg/kg/injection, schedule: Q04DX003 (ip), vehicle: saline with Tween-80) was 123 % of control.

With `CC1CCC2NCCCC2C1` (stereo not given) the T/C (endpoint: mean survival time, dose: 5.0 mg/kg/injection, schedule: Q04DX002 (ip), vehicle: saline) was 98 % of control, the T/C (endpoint: mean survival time, dose: 10.0 mg/kg/injection, schedule: Q04DX002 (ip), vehicle: saline) was 95 % of control and the T/C (endpoint: mean survival time, dose: 20.0 mg/kg/injection, schedule: Q04DX002 (ip), vehicle: saline) was 98 % of control.

`CC(C)c1cc(O)c(C(C)C)cc1O` was tested, and the T/C (endpoint: mean survival time, dose: 75.0 mg/kg/injection, schedule: Q01DX001 (ip), vehicle: saline) was 104 % of control and the T/C (endpoint: mean survival time, dose: 150.0 mg/kg/injection, schedule: Q01DX001 (ip), vehicle: saline) was 111 % of control.

For `COc1cc2c(cc1O)CCCCC2O` (stereo not given), the T/C [5] was 107 % of control, the T/C [6] was 100 % of control and the T/C [7] was 92 % of control.

In the case of `CC(=O)OC1(C)C=C/C(=N\S(=O)(=O)c2ccc(C)cc2)c2ccccc21` (stereo not given), the T/C [8] is reported as 95 % of control, the T/C [9] is reported as 97 % of control and the T/C [10] is reported as 95 % of control.

For `O=S(=O)(O)c1ccc(O)c(S(=O)(=O)O)c1`, the T/C [11] was 97 % of control, the T/C [12] was 101 % of control and the T/C [13] was 97 % of control.

With `OC1C2CCC(C2)C1C(O)(C(F)(F)F)C(F)(F)F` (stereo not given) the T/C (endpoint: mean survival time, dose: 3.13 mg/kg/injection, schedule: Q01DX009 (ip), vehicle: saline) was 104 % of control, the T/C (endpoint: mean survival time, dose: 6.25 mg/kg/injection, schedule: Q01DX009 (ip), vehicle: saline) was 98 % of control and the T/C [1] was 98 % of control. The T/C (endpoint: mean survival time, dose: 12.5 mg/kg/injection, schedule: Q01DX009 (ip), vehicle: saline) was 103 % of control and the T/C [2] was 98 % of control.

In the case of `O=c1ccccn1CC(O)S(=O)(=O)O` (stereo not given), the T/C [4] is reported as 95 % of control, the T/C [14] is reported as 92 % of control and the T/C [15] is reported as 100 % of control.

In the case of `C/C=C1\C(=O)O[C@@]23C=C[C@H]4C(C(=O)OC)=CO[C@@H](O[C@H]12)[C@H]43`, the T/C (endpoint: mean survival time, dose: 50.0 mg/kg/injection, schedule: Q01DX001 (ip), vehicle: saline) is reported as 95 % of control.

With `CC(=O)OCC1OC(OC(C)=O)C(NC(=O)Nc2ccccc2)C(OC(C)=O)C1OC(C)=O` (stereo not given) the T/C (endpoint: mean survival time, dose: 12.5 mg/kg/injection, schedule: Q01DX009 (ip), vehicle: other) was 96 % of control, the T/C (endpoint: mean survival time, dose: 25.0 mg/kg/injection, schedule: Q01DX009 (ip), vehicle: other) was 94 % of control and the T/C [5] was 96 % of control. The T/C [6] was 93 % of control and the T/C [7] was 94 % of control.

With `CC([NH-])CC[NH-].O=[N+]([O-])O.O=[N+]([O-])O.[Pt+2]` (stereo not given) the T/C [1] was 169 % of control.

For `O=S(=O)(O)O.[NH-]C(c1ccccc1)C([NH-])c1ccccc1.[Pt+2]` (stereo not given), the T/C [2] was 192 % of control and the T/C [3] was 234 % of control and 197 % of control.

`CN1C(=O)[N+]2(CCCCC2)N=C1[O-]` was tested, and the T/C [16] was 96 % of control, the T/C [4] was 91 % of control and the T/C [17] was 102 % of control. For the same molecule, the T/C [14] was 97 % of control, the T/C [18] was 106 % of control and the T/C [15] was 95 % of control.

In the case of `C[P+](CP(=O)(c1ccccc1)c1ccccc1)(c1ccccc1)c1ccccc1`, the T/C (endpoint: mean survival time, dose: 25.0 mg/kg/injection, schedule: Q04DX002 (ip), vehicle: saline with Tween-80) is reported as 107 % of control, the T/C (endpoint: mean survival time, dose: 50.0 mg/kg/injection, schedule: Q04DX002 (ip), vehicle: saline with Tween-80) is reported as 92 % of control and the T/C (endpoint: mean survival time, dose: 100.0 mg/kg/injection, schedule: Q04DX002 (ip), vehicle: saline with Tween-80) is reported as 96 % of control.

With `O=c1cc(CCl)nc2c3ncn(C4OC(CO)C(O)C4O)c3ncn12` (stereo not given) the T/C (endpoint: median survival time, dose: 12.5 mg/kg/injection, schedule: Q01DX005 (ip), vehicle: saline with Tween-80) was 105 % of control, the T/C (endpoint: median survival time, dose: 25.0 mg/kg/injection, schedule: Q01DX005 (ip), vehicle: saline with Tween-80) was 102 % of control and the T/C (endpoint: median survival time, dose: 50.0 mg/kg/injection, schedule: Q01DX005 (ip), vehicle: saline with Tween-80) was 98 % of control. For the same molecule, the T/C (endpoint: median survival time, dose: 100.0 mg/kg/injection, schedule: Q01DX005 (ip), vehicle: saline with Tween-80) was 95 % of control and the T/C (endpoint: median survival time, dose: 200.0 mg/kg/injection, schedule: Q01DX005 (ip), vehicle: saline with Tween-80) was 98 % of control.

In the case of `CCN1CCN(CC)C1c1ccccc1`, the T/C [16] is reported as 103 % of control and the T/C [17] is reported as 98 % of control.

In the case of `CC1OC(c2ccccc2)OC1C` (stereo not given), the T/C [8] is reported as 94 % of control, the T/C [9] is reported as 92 % of control and the T/C [10] is reported as 90 % of control.

For `CC(C)(C)CC(C)(C)c1ccc(OCCOc2ccc(C(=O)NCCNC(=O)c3ccc4ccccc4c3O)cc2N)cc1`, the T/C [17] was 89 % of control and the T/C [18] was 89 % of control.

In the case of `CC(=O)OC1CSC1`, the T/C (endpoint: mean survival time, dose: 30.0 mg/kg/injection, schedule: Q01DX001 (ip), vehicle: saline with Tween-80) is reported as 106 % of control, the T/C (endpoint: mean survival time, dose: 60.0 mg/kg/injection, schedule: Q01DX001 (ip), vehicle: saline with Tween-80) is reported as 109 % of control and the T/C (endpoint: mean survival time, dose: 120.0 mg/kg/injection, schedule: Q01DX001 (ip), vehicle: saline with Tween-80) is reported as 101 % of control.

`NCCNCC(=O)O` was tested, and the T/C [4] was 97 % of control, the T/C [14] was 93 % of control and the T/C [15] was 97 % of control.

With `O=c1[nH]c2c(c(=O)n1-c1ccccc1)CCO2` the T/C [11] was 98 % of control, the T/C [12] was 91 % of control and the T/C [13] was 98 % of control.

With `C[n+]1ccc(Nc2ccc(NC(=O)c3ccc(Nc4cc[n+](C)c5ccc(N)cc45)cc3N)cc2)cc1` the T/C (endpoint: mean survival time, dose: 2.0 mg/kg/injection, schedule: Q01DX009 (ip), vehicle: water) was 205 % of control and the T/C (endpoint: mean survival time, dose: 4.0 mg/kg/injection, schedule: Q01DX009 (ip), vehicle: water) was 316 % of control.

In the case of `COC(=O)C1(C)CCCC2(C)C1CCC13OC(=O)C(C(C)C)(CC21)C3O` (stereo not given), the T/C [16] is reported as 94 % of control, the T/C [17] is reported as 88 % of control and the T/C [18] is reported as 92 % of control.

`Cc1ccc(NC(=O)OCCOc2ccc(-c3ccccc3)cc2)cc1[N+](=O)[O-]` was tested, and the T/C (endpoint: mean survival time, dose: 50.0 mg/kg/injection, schedule: Q01DX009 (ip), vehicle: saline with Tween-80) was 98 % of control, the T/C [16] was 98 % of control and the T/C [17] was 94 % of control.

`O=C(O)c1c(Cl)c(Cl)c(C(=O)O)c(Cl)c1Cl` was tested, and the T/C [8] was 96 % of control, the T/C [9] was 96 % of control and the T/C [10] was 94 % of control.

In the case of `O=C(Nc1ccccc1F)c1ccccc1Cl`, the T/C (endpoint: mean survival time, dose: 100.0 mg/kg/injection, schedule: Q01DX009 (ip), vehicle: saline) is reported as 98 % of control, the T/C [4] is reported as 106 % of control and the T/C (endpoint: mean survival time, dose: 200.0 mg/kg/injection, schedule: Q01DX009 (ip), vehicle: saline) is reported as 92 % of control. The T/C [14] was 104 % of control, the T/C (endpoint: mean survival time, dose: 400.0 mg/kg/injection, schedule: Q01DX009 (ip), vehicle: saline) was 98 % of control and the T/C [15] was 97 % of control.

With `CCCCNCCO` the T/C [11] was 104 % of control.

Reference: PubChem BioAssay AID256 (DTP/NCI, 2004)
